Data taken from patent US4303674A, “Substituted decalins, their preparation and use” (Beecham Group Limited, priority 1979, dated 1981).
Entries after “also recorded” stand apart in the source; their conditions may differ.

Columns and labels:
[1] = test system: croton oil-induced inflammation of the rat ear; assay: topical anti-inflammatory model, croton oil irritant solution on rat ears (based on Fregnan & Torsello 1975); format: in vivo, Rats, Charles River Wistar strain, male; conditions: for reduction of the increase in ear weight / activity (in words): topical
Protocol: 1. Compounds (5) and (6) were tested for anti-inflammatory activity in a topical model based on that described by Fregnan G. B. & Torsello, A. L. (1975) Current Therapeutic Research 17, No. 4, 375-381.
In the test the activity of the novel compounds was compared with that of naproxen. In outline the method is as follows:
Rats, Charles River Wistar strain, .male. 10/group. Weight range 220-260 g.
Irritant solution applied consists of 74% diethyl ether (20% pyridine, 5% dist. H2 O, 1% croton oil. 0.05 ml is placed on each ear, compound being included in the irritant solution on one ear. 6 hours later the ears are removed by cutting along the hairline and weighed.
-ve controls--no irritant solution.
+ve controls--irritant solution on both ears.

[2] = test system: cantharidin-induced inflammation of the rat ear; assay: anti-inflammatory test induced by the application of cantharidin to the rat ear (Boris & Hurley 1977); format: in vivo, male Wistar rats; conditions: for Untreated Ear Wt mg ± s.e.: normal control 92.9, inflamed control 146.3; for Treated Ear Wt mg ± s.e.: normal control 95.0, inflamed control 162.0
Protocol: 2. Activity of Compound (5) in an anti-inflammatory test induced by the application of cantharidin to the rat ear
This model developed by Boris A and Hurley M., (1977) J. Invest. Dermatology, 68, 161-164 is claimed to be selective for the anti-inflammatory activity of corticosteroids. Groups of ten male Wistar rats received 0.05 ml per ear of a solution of 400 μg of cantharidin plus or minus compound in tetrahydrofuran. […]

[3] = test system: croton oil-induced inflammation of the ear; assay: croton oil model of topical anti-inflammatory activity, dose response (1% croton oil in tetrahydrofuran); format: in vivo, rat; conditions: for Treated Ear Wt mg ± s.e.: normal control 98.5, inflamed control 126.1; for Untreated Ear Wt mg ± s.e.: normal control 99.1, inflamed control 118.7; for ED50: 1% croton oil in tetrahydrofuran
From the text: 3. A direct comparison of the activity of Compound (12) and Compound (5) in the croton oil model of topical anti-inflammatory activity

[4] = 2 mg/rat, first experiment (compounds 5, 6, naproxen), -ve control 128.4, +ve control 163.2, 6 hours
[5] = 2 mg/rat, first experiment, -ve control 122.5, +ve control 151.8, 6 hours
[6] = 2 mg/rat, first experiment, 6 hours

SMILES	Mean weight of Treated Ear [1, 4] [m.g.]	Mean weight of Untreated Ear [1, 5] [m.g.]	Treated Ear, % in parentheses (reduction of ear weight increase vs +ve control) [1, 6] [%]	Untreated Ear, % in parentheses (reduction of ear weight increase vs +ve control) [1, 6] [%]	reduction of the increase in ear weight / activity (in words) [1]	Untreated Ear Wt mg ± s.e. ([2]; 4 mg/ear) [mg]	Treated Ear Wt mg ± s.e. ([2]; 4 mg/ear) [mg]	Treated Ear % Inhibition ([2]; 4 mg/ear) [%]	Untreated Ear % Inhibition ([2]; 4 mg/ear) [%]	Treated Ear Wt mg ± s.e. ([3]; 1 mg/ear) [mg]	Untreated Ear Wt mg ± s.e. ([3]; 1 mg/ear) [mg]	Treated Ear % Inhibition ([3]; 1 mg/ear) [%]	Untreated Ear % Inhibition ([3]; 1 mg/ear) [%]	Treated Ear Wt mg ± s.e. ([3]; 2 mg/ear) [mg]	Untreated Ear Wt mg ± s.e. ([3]; 2 mg/ear) [mg]	Treated Ear % Inhibition ([3]; 2 mg/ear) [%]	Untreated Ear % Inhibition ([3]; 2 mg/ear) [%]	Treated Ear Wt mg ± s.e. ([3]; 4 mg/ear) [mg]	Untreated Ear Wt mg ± s.e. ([3]; 4 mg/ear) [mg]	Treated Ear % Inhibition ([3]; 4 mg/ear) [%]	other results
CC(=O)CCC1CCC2=CC(=O)CCC2(C)C1 (stereo not shown) [Compound (5), 4a-Methyl-6-(3'-oxobutyl)-2,3,4,4a,5,6,7,8-octahydro-2-naphthalenone]	135.4 ± 3.3	169.0 ± 7.4	80	-59	significantly reduced the increase in ear weight brought about by the irritant solution; also recorded: The activity was at the same dose as that of naproxen	134.3	140.5	32	22	124.5 ± 4.6	119.9 ± 4.7	6	-6	116.4 ± 3.8	119.9 ± 5.1	35	-6	108.2 ± 2.8	115.5 ± 5.6	65	Untreated Ear % Inhibition ([3]; 4 mg/ear): 16%; ED50 [3]: 2.8 mg/ear
C[C@]12CCC(=O)C=C1CC[C@@H]1[C@@H]2[C@@H](O)C[C@@]2(C)[C@H]1CC[C@]2(O)C(=O)CO [Hydrocortisone]	–	–	–	–	–	–	–	–	–	–	–	–	–	–	–	–	–	–	–	–	Untreated Ear Wt mg ± s.e. ([2]; 2 mg/ear): 142.0 mg; Treated Ear Wt mg ± s.e. ([2]; 2 mg/ear): 133.1 mg; Treated Ear % Inhibition ([2]; 2 mg/ear): 43%; Untreated Ear % Inhibition ([2]; 2 mg/ear): 8%
CC(=O)CCC1CCC2=CC(=O)C=CC2(C)C1 (stereo not shown) [Compound (6)]	134.3 ± 2.3	159.1 ± 5.1	83	-25	appeared equi-active with Compound (5)	–	–	–	–	–	–	–	–	–	–	–	–	–	–	–	–
COc1ccc2cc([C@H](C)C(=O)O)ccc2c1 [Naproxen, reference compound]	139.5 ± 3.0	162.2 ± 4.9	68	-35	–	145.0	184.8	-34	2	–	–	–	–	–	–	–	–	–	–	–	Mean weight of Treated Ear ([1]; 2 mg/rat, second experiment (with compound 12), -ve control 127.0, +ve control 152.2): 141.2 ± 3.7 m.g.; Mean weight of Untreated Ear ([1]; 2 mg/rat, second experiment, -ve control 130.1, +ve control 159.4): 155.9 ± 4.1 m.g.; Treated Ear, % in parentheses (reduction of ear weight increase vs +ve control) ([1]; 2 mg/rat, second experiment): 44%; Untreated Ear, % in parentheses (reduction of ear weight increase vs +ve control) ([1]; 2 mg/rat, second experiment): 12%
CC(=O)CCC1CCC2=CC(=O)CCC2C1 (stereo not shown) [Compound (12), 6-(3'-Oxobutyl)-2,3,4,4a,5,6,7,8-octahydronaphthalene-2-one]	–	–	–	–	–	–	–	–	–	116.1 ± 4.6	112.6 ± 5.5	36	31	109.8 ± 3.2	117.0 ± 2.8	59	9	106.3 ± 3.4	120.6 ± 4.5	72	Mean weight of Treated Ear ([1]; 4 mg/rat, second experiment (compound 12), -ve control 127.0, +ve control 152.2): 136.9 ± 2.9 m.g.; Mean weight of Untreated Ear ([1]; 4 mg/rat, second experiment, -ve control 130.1, +ve control 159.4): 148.0 ± 3.9 m.g.; Treated Ear, % in parentheses (reduction of ear weight increase vs +ve control) ([1]; 4 mg/rat, second experiment): 61%; Untreated Ear, % in parentheses (reduction of ear weight increase vs +ve control) ([1]; 4 mg/rat, second experiment): 51%; Untreated Ear % Inhibition ([3]; 4 mg/ear): -10%; ED50 [3]: 1.6 mg/ear; potency relative to Compound (5) ([3]; dose response against 1% croton oil in tetrahydrofuran): of the order of two fold more potent than Compound (5)
